Experimental data from article PMC12775434, “Ultra-large virtual screening unveils potent agonists of the neuromodulatory orphan receptor GPR139” (Nature Communications, 2025).
“And” between values parts separate entries of the source, which are not always exact repeats. Equal entries are not always repeated.

Key:
GPR139 [1] = molecular target: T1, GPR139 (Homo sapiens, UniProt Q6DWJ6); experiment: Ca2+ mobilization assay, agonist mode, stable GPR139-CHOk1 cell line; type: cell-based; details: Agonist mode; individual replicates (Supplementary Figure 1)
T1 sequence (Q6DWJ6 1-353): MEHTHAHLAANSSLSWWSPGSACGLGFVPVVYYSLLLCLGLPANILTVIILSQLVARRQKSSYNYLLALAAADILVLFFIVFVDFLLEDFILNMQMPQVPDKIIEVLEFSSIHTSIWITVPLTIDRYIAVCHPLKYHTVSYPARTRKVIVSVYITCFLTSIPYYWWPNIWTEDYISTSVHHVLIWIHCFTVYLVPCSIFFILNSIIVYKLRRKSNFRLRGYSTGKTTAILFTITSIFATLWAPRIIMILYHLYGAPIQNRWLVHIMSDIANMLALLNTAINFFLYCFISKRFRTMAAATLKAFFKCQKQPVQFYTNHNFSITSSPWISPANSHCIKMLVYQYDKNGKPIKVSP
Protocol: Primary screening and pharmacological characterization of compounds were performed using a CHO-K1 cell line that stably expresses human GPR139 (GPR139-CHOk1). The GPR139-CHOk1 cell line was kindly provided by H. Lundbeck A/S, Denmark[24]. GPR139-CHOk1 cells were grown in Ham’s F-12 Kaighn’s Modification Medium (ThermoFisher #21127030) supplemented with 10% dialyzed fetal bovine serum (US origin, ThermoFisher #26400044), 100 units/mL Penicillin-Streptomycin (ThermoFisher #15140122), and 1 mg/mL Geneticin (ThermoFisher #11811031). […] M1R-CHOk1 cells were purchased from The Missouri S&T cDNA Resource Center (#CEM100TN00). M1R-CHOk1 cells were grown in Ham’s F12 Medium (ThermoFisher #21765029) supplemented with 10% fetal bovine serum (Brazilian origin, ThermoFisher #10270106), 100 units/mL Penicillin-Streptomycin, and 0.25 mg/mL Geneticin. HEK293A cells transiently transfected with GPR139 were used for additional pharmacological assessment of signaling pathways activated by GPR139. HEK239A cells were generously provided by Dr. Asuka Inoue, Tohoku University, Japan. HEK293A cells were grown in Dulbecco’s Modified Eagle Medium (ThermoFisher #31966047) supplemented with 10% dialyzed fetal bovine serum and 100 units/mL Penicillin-Streptomycin. Cell lines were maintained at 37 °C in humidified incubator equilibrated with 5% CO2.
(§1) 30,000 GPR139- or M1R-CHOk1 cells/well were seeded in black clear bottom tissue culture treated 96-well plates (Greiner #655090) and grown for 20–24 h. Cells were washed with HEPES buffer (Hank’s Balanced Salt Solution (HBBS) supplemented with 20 mM HEPES, 1 mM MgCl2, and 1 mM CaCl2; pH 7.4). Cells were loaded with 50 µL of 2 µM Fluo-4 AM dye (ThermoFisher #F14202) in HEPES buffer supplemented with 2.5 mM probenecid and 0.01% Pluronic F-68 (ThermoFisher #24040032) for 1 h at 37 °C. Cells were washed with HEPES buffer. 50 µL HEPES buffer supplemented with 2.5 mM probenecid was added, and the cells were incubated for 10 min at 37 °C before measurement. 50 µL test compounds diluted in HEPES buffer from DMSO stocks (final DMSO concentration of maximally 0.3%) were added automatically after baseline measurements. The intracellular calcium mobilization was measured on a FlexStation 3 Multimode Microplate Reader (Molecular Devices) at 37 °C with filters for excitation of 485 nm and emission of 525 nm.
(§2) Our primary compound screening protocol consisted of two subsequent steps that allowed to screen for agonists and antagonists simultaneously. In the first step, the screening compounds were applied at 10 µM to test for agonist activity (agonist mode). Following 20 min incubation with the compounds added in the first step, in the second step, an EC80 concentration (800 nM) of the reference agonist Lundbeck Cmp 1a was applied to test for antagonist activity (antagonist mode).
Pharmacological data and statistical analyses were performed in GraphPad Prism v9–10 (Graphpad Software Inc., San Diego, CA), which are also specifically described in the figure and table legends. The functional assay responses were normalized to buffer (0%) and Lundbeck Cmp 1a or JNJ-63533054 (100%), for Ca^2+ and IP1 experiments in the GPR139-CHOk1 stable cell line or Ca^2+, G protein activation, and arrestin-3 recruitment experiments in the HEK293A cells transiently transfected with GPR139, respectively. Data are from at least three independent experiments, unless stated otherwise. Concentration-response curves were fitted applying non-linear regression using the log (agonist) versus response model with variable slope. ANOVA was applied for comparing results and determining statistical significance.

GPR139 [2] = molecular target: T1, GPR139; experiment: Ca2+ mobilization assay, antagonist mode (EC80 800 nM Lundbeck Cmp 1a after 20 min preincubation), GPR139-CHOk1; type: cell-based; details: individual replicates (Supplementary Figure 1)
Protocol: as §1
as §2, with “(antagonist mode). In the agonist mode (first step) response is seen only with compounds having agonist activity (Cmp 1a), but not with non-receptor-binding compounds (Vehicle) or antagonists (NCRW0105-E06) (Supplementary Fig. 14). […] No antagonist compounds were identified in this study.” for “(antagonist mode).”

SMILES	Ca2+ signal (% of Cmp 1a) (GPR139 [1])	Ca2+ signal (% of Cmp 1a) (GPR139 [2])
O=C(Nc1ccnc(-c2ccccc2)n1)C1COc2ccccc21 (centres unmarked) [Compound 31, O=C(NC=1C=CN=C(N1)C=2C=CC=CC2)C3COC=4C=CC=CC34]	-5 % of Cmp 1a and 0.292 % of Cmp 1a and -0.778 % of Cmp 1a	69.7439 % of Cmp 1a and 83.7645 % of Cmp 1a and 84.6387 % of Cmp 1a
CC(NC(=O)c1occc1COc1ccccc1)c1ccon1 (centres unmarked) [Compound 32, CC(NC(=O)C=1OC=CC1COC=2C=CC=CC2)C=3C=CON3]	-11 % of Cmp 1a and -0.416 % of Cmp 1a and 7 % of Cmp 1a	55.4318 % of Cmp 1a and 73.597 % of Cmp 1a and 97.305 % of Cmp 1a
O=C(CCn1nnc2ccccc2c1=O)Nc1ccc(F)c(F)c1F [Compound 33, FC=1C=CC(NC(=O)CCN2N=NC=3C=CC=CC3C2=O)=C(F)C1F]	-1.58 % of Cmp 1a and 1 % of Cmp 1a and 18 % of Cmp 1a	80.4976 % of Cmp 1a and 74.4333 % of Cmp 1a and 82.6399 % of Cmp 1a
CC(NC(=O)N1CCCCC1c1cnn(C)c1)c1nccs1 (centres unmarked) [Compound 34, CC(NC(=O)N1CCCCC1C=2C=NN(C)C2)C3=NC=CS3]	-1.66 % of Cmp 1a and 6.32 % of Cmp 1a and -6 % of Cmp 1a	69.32 % of Cmp 1a and 71.8073 % of Cmp 1a and 90.0552 % of Cmp 1a
O=C(NCc1cccnc1)c1cn(-c2cccc(Cl)c2)nn1 [Compound 35, ClC=1C=CC=C(C1)N2C=C(N=N2)C(=O)NCC=3C=CC=NC3]	5.3 % of Cmp 1a and 12 % of Cmp 1a and 7.49 % of Cmp 1a	84.5048 % of Cmp 1a and 71.7301 % of Cmp 1a and 84.4533 % of Cmp 1a
CC(=O)c1sc(NC(=O)Cc2cncs2)nc1-c1ccccc1 [Compound 36, CC(=O)C=1SC(NC(=O)CC2=CN=CS2)=NC1C=3C=CC=CC3]	9 % of Cmp 1a and -3 % of Cmp 1a and 2.21 % of Cmp 1a	88.0715 % of Cmp 1a and 92.8057 % of Cmp 1a and 66.8597 % of Cmp 1a
Cc1ccc(-n2cc(NC(=O)NCc3cccs3)cn2)c(C)c1 [Compound 37, CC=1C=CC(=C(C)C1)N2C=C(NC(=O)NCC3=CC=CS3)C=N2]	-6 % of Cmp 1a and 12 % of Cmp 1a and 7 % of Cmp 1a	89.9792 % of Cmp 1a and 76.2749 % of Cmp 1a and 86.0947 % of Cmp 1a
Cc1nnsc1C(=O)N1CCCC1c1nc2cc(Cl)ccc2[nH]1 (centres unmarked) [Compound 38, CC=1N=NSC1C(=O)N2CCCC2C3=NC=4C=C(Cl)C=CC4N3]	1.3 % of Cmp 1a and 1.18 % of Cmp 1a and -5.34 % of Cmp 1a	85.3922 % of Cmp 1a and 96.4303 % of Cmp 1a and 86.2753 % of Cmp 1a
Cn1ccc(CNC(=O)Nc2cc(-c3cc(F)cc(F)c3)nn2C)c1 [Compound 39, CN1C=CC(CNC(=O)NC2=CC(=NN2C)C=3C=C(F)C=C(F)C3)=C1]	-2.56 % of Cmp 1a and -1.6 % of Cmp 1a and -1.54 % of Cmp 1a	63.6266 % of Cmp 1a and 84.5465 % of Cmp 1a and 97.4779 % of Cmp 1a
CN(Cc1ncc(Cl)n1C)c1nc2cc([N+](=O)[O-])ccc2[nH]1 [Compound 40, CN(CC1=NC=C(Cl)N1C)C2=NC=3C=C(C=CC3N2)[N+](=O)[O-]]	-0.934 % of Cmp 1a and 6 % of Cmp 1a and 11 % of Cmp 1a	84.3072 % of Cmp 1a and 83.9821 % of Cmp 1a and 105.029 % of Cmp 1a
